Like-named read-outs stand apart in the source and are kept apart here.
Key:
[1] = system: lipidic peroxidation of membrane lipids in rat hepatocytes (hepatic microsomal membranes); test: In vitro antioxidant activity (TBARS test); assay type: biochemical; conditions: read-out: Antioxidant activity IC50 μM (CL 95%)
Protocol: The antioxidant properties of compounds (6) (disclosed in example 1) and compound (23) (disclosed in example 19) and reference antioxidant compounds were assessed after NADPH-induced lipidic peroxidation of membrane lipids in rat hepatocytes using the detection of 2-thiobarbituric acid reactive substances (TBARS) by visible spectroscopy.
Hepatic microsomal membranes from male Wistar rats (200-250 g) were prepared by differential centrifugation (8000 g, 20 min; 120000 g, 1 h) in a HEPES/sucrose buffer (10 mM, 250 mM, pH 7.4) and stored at −80° C. Incubation was performed at 37° C. in a Tris-HCl/KCl (100 mM/150 mM, pH 7.4) containing microsomal membranes (2 mg prot/mL), sodium ascorbate (100 μM), and DMSO solutions of the tested compounds. Lipid peroxidation was initiated by adding ADP-FeCl3 and NADPH (Method A) or 2.5 μM FeSO4 (Method B) (as described by Boschi D. et al., J. Med. Chem. 2006, 49:2886-2897). Aliquots were taken from the incubation mixture at 5, 15, and 30 min and treated with trichloroacetic acid (TCA) 10% w/v. Lipid peroxidation was assessed by spectrophotometric (543 nm) determination of the TBARS consisting mainly of malondialdehyde (MDA). TBARS concentrations (expressed in nmol/mg protein) were obtained by interpolation with a MDA standard curve. The antioxidant activity of tested compounds was evaluated as the percent inhibition of TBARS production with respect to control samples, using the values obtained after 30 min of incubation. IC50 values were calculated by nonlinear regression analysis.

[2] = system: rat L-NAME-induced hypertension; test: Systolic blood pressure in rat L-NAME-induced hypertension, single oral dose; assay type: in vivo; conditions: for Delta vs basal (mmHg), systolic blood pressure: 5-ISMN 30 mg/kg oral
Protocol: To assess the in vivo NO-dependent activity, Compound (6) was evaluated for systolic blood pressure (SBP) reduction efficacy in a rat model of NO-deprivation induced by L-NAME and compared with 5-ISMN.
(§1) Fasted male SD rats (250-300 g, n=3-5 per group), obtained from Harlan Italy (Correzzana, Milan, Italy) were orally treated with tested compounds or vehicle (DMSO:Methocel 1% 2/98 v/v) in a total volume of 4 ml/kg by gavage. At each time point (1, 3, 6 and 24 h) animals were deeply anesthetized with Zoletil® 100 (3 mg/kg), given intramuscularly. Thereafter, a pressure catheter (Samba Sensors, Harvard Apparatus, UK) was introduced into the common carotid artery for central blood pressure measurement. Pressure transducer was connected to a personal computer, in order to allow real time monitor of the pressure tracing. After 10 minutes of basal recording, L-NAME (50 mg/kg) was administered intraperitoneally and the effect on SBP monitored. When the SBP stabilized (5 minutes without variations) the recording was stopped. To further confirm that functional activity was NO-dependent, at each time point blood ^15N-nitrite levels were measured following the procedure described in Example 12.

[3] = system: hypertonic saline-induced IOP increase in rabbits; test: IOP lowering activity in hypertonic saline-induced IOP increase in rabbits; assay type: in vivo, New Zealand White rabbits
Description: Intraocular pressure (IOP) lowering activity in hypertonic saline-induced IOP increase in rabbits.
This animal model of elevated IOP was used for assessing the intraocular pressure (IOP) lowering activities of some compounds of the invention, timolol, dorzolamide and 5-isosorbide mononitrate.
• compounds (6), (20) and (25) • timolol and dorzolamide that are drugs commonly used for the treatment of glaucoma and ocular hypertension. • Isosorbide mononitrate (5-ISMN) that is a commonly used nitric oxide donor drug.
(§2) Timolol, dorzolamide and 5-ISMN were tested as reference compounds. Adults male New Zealand White rabbits weighting 1.8-2.0 Kg were used in the experiments.
IOP was measured using a Tono-Pen XL prior to hypertonic saline injection (basal) and at 30, 60, 120 and 240 min thereafter. Vehicle (5% cremophor-EL; 0.3% DMSO; 0.2 mg/ml BAK in PBS pH 6.0) and all the tested compounds dissolved in the vehicle were instilled as eye drops immediately after hypertonic saline injection. Eyes were randomly assigned to different treatment groups. Vehicle and the tested compounds were directly instilled into the conjunctiva pocket at the desired doses. One drop of 0.4% oxybuprocaine hydrochloride (Novesine, Sandoz) was instilled in each eye immediately before each set of pressure measurements.
Results are reported in Table 6, the ocular hypotensive activities of the tested compounds are expressed as IOP change at 60 and 120 minutes after topical administration versus vehicle and versus the basal IOP.

[4] = system: isolated aortas from rats; test: Ex vivo tolerance evaluation, vascular response of isolated rat aortas; assay type: cell-based; conditions: for EC50 at 30 mg/kg: Rattus norvegicus, read-out: EC50 (μM), vascular response to 5-ISMN
Protocol: (§3) Thoracic aortas from male New Zealand rabbits or male Sprague Dawley (SD) were used. The aortas were placed immediately in Krebs-HEPES buffer (pH 7.4; composition mM: NaCl 130.0, KCl 3.7, NaHCO3 14.9, KH2PO4 1.2, MgSO4.7H2O 1.2, Glucose 11.0, HEPES 10.0, CaCl2.2H2O 1.6). Connective tissue was removed and aortas were cut into ring segments (4-5 mm in length). Each ring was placed in a 5 mL tissue bath filled with Krebs-HEPES buffer (37° C.) aerated with 95% O2 and 5% CO2 and was attached to a force transducer (Grass FT03), connected to a BIOPAC MP150 System for measurement of the isometric tension. Preparations were allowed to equilibrate for 1 h at a resting tension of 2 g for rabbit aortas and 1 g for rat aortas with changes of the buffer every 15 min. Then the rings were stimulated by exposure to 90 mM KCl (3 times) with intervening washings.
(§4) Rat aorta. After equilibration, rat aortas were precontracted with KCl (90 mM) and, when the contraction was stable, a cumulative concentration-response curve to acetylcholine (ACh, 0.01-100 μM) was added. After washout, the rings were precontracted again with KCl (90 mM). When a steady-state level of contraction was obtained, a cumulative concentration-response curve to the tested compounds (0.01-100 μM) was obtained.
(§5) Data analysis. Results are given as mean±SEM. Vascular responses are expressed as percentage relaxation and plotted vs concentration. The sensitivity of isolated aorta to different vasodilators is expressed as the concentration that elicited 50% of the maximal responses (EC50). Responses are quantified in terms of EC50 and Emax (maximal vasodilating effect) values, obtained from the concentration-response curve by nonlinear curve fitting, using GraphPad software.
Tolerance to nitrate was further investigated assessing the vascular effects of Compound (6) following repeated treatment compared with 5-ISMN. The vascular response to the compound itself was assessed on isolated aortas from rats orally treated for 5 days with Compound (6) (100 mg/kg). The vascular response was performed as described in Example 6.
Vascular responses were performed 1 h (ISMN) or 3 h (Compound (6)) after the last administration, the concentrations of tested compound that elicited the 50% of the maximal responses (EC50) are shown in Table 4.

[5] = system: endothelial-dependent vasodilation of rat aortas; test: Endothelial dysfunction evaluation, vascular response to acetylcholine; assay type: cell-based; conditions: 5-ISMN 30 mg/kg; for Emax at 30 mg/kg: Rattus norvegicus, read-out: % relaxation (Emax), response to acetylcholine
Protocol: as §3, §4, §5
Endothelial-dependent vasodilation (vascular response to acetylcholine, ACh) was assessed following 5-day treatment with Compound (6) (100 mg/kg) or 5-ISMN (30 mg/kg). A relaxant response to ACh indicated the presence of a functional endothelium. The vascular response was performed as described in Example 6.

[6] = system: ocular normotensive New Zealand rabbits; test: IOP lowering activity in ocular normotensive New Zealand rabbits; assay type: in vivo, New Zealand White rabbits
Protocol: Intraocular pressure (IOP) lowering activity in ocular normotensive New Zealand rabbits.
• compound (6) • timolol that is a drug commonly used for the treatment of glaucoma and ocular hypertension. • Isosorbide mononitrate (5-ISMN) that is a commonly used nitric oxide donor drug.
as §2
IOP was measured using a pneumatonometer 30 CLASSIC™ before topical application (basal) and a different time point (30, 60, 120, 240 and 300 min) thereafter. Vehicle (5% cremophor-EL; 0.3% DMSO; 0.2 mg/ml BAK in PBS pH 6.0) or tested compounds dissolved in the vehicle were instilled as eye drops into the conjunctiva pocket. Eyes were randomly assigned to different treatment groups. One drop of 0.4% oxybuprocaine hydrochloride (Novesine, Sandoz) was instilled in each eye immediately before each set of pressure measurements.
The test results are reported in Table 7, the ocular hypotensive activity is expressed as IOP changes at 30, 60, 120 and 300 minutes after topical administration versus vehicle and versus IOP at basal.

[7] = system: rat L-NAME-induced hypertension; test: In vivo tolerance evaluation, L-NAME-induced hypertension after 5-day oral treatment; conditions: 5-ISMN 30 mg/kg; for Delta vs basal (mmHg): peak effect 1 hour
Protocol: as §1
To investigate whether the compound (6) induced nitrate tolerance, as observed for most of the drugs belonging to the nitrate class, the L-NAME-induced hypertension rat model described in Example 7 was performed following a repeated oral treatment. Rats were orally treated for 5 days with vehicle, compound (6) (100 mg/kg) or 5-ISMN (30 mg/kg). […] The experiments were performed at the peak effect (1 hour for 5-ISMN and 3 hours for Compound (6)), results are reported in Table 3.

[8] = system: lipidic peroxidation of membrane lipids in rat hepatocytes (hepatic microsomal membranes); conditions: Method B; from Chegaev et al.; read-out: Antioxidant activity IC50 μM (CL 95%); cited from earlier work
[9] = 60 min after topical administration
[10] = 120 min after topical administration
[11] = 30 min after topical administration
[12] = 300 min after topical administration
[13] = Method A (ADP-FeCl3 and NADPH), inhibition of TBARS production after 30 min

O=C(O)/C=C/c1ccc(O)c(O)c1 [Caffeic acid]
IC50 ([1]; Method B (2.5 μM FeSO4)): 33 µM

O=[N+]([O-])O[C@@H]1CO[C@H]2[C@@H]1OC[C@@H]2O [Compound 5-ISMN, isosorbide-5-mononitrate]
Delta vs basal (mmHg), systolic blood pressure ([2]; 1 hour): 10.5 ± 6.1 mmHg | Delta vs basal (mmHg), systolic blood pressure ([2]; 3 hours): 6.5 ± 2.4 mmHg | Delta vs basal (mmHg), systolic blood pressure ([2]; 6 hours): 51.2 ± 5.7 mmHg | Delta vs basal (mmHg), systolic blood pressure ([2]; 24 hours): 83 ± 9 mmHg | time over which L-NAME induced hypertension was counteracted after treatment ([2]; single oral administration, 5-ISMN 30 mg/kg, Compound (6) 100 mg/kg): 3 h | ΔΔ (mmHg), IOP change versus vehicle and versus basal IOP [3, 9]: −0.7 ± 2.9 mmHg | ΔΔ (mmHg), IOP change versus vehicle and versus basal IOP [3, 10]: −6.6 ± 1.8 mmHg | vascular sensitivity of aortas of treated animals to the compound itself versus vehicle/control arteries ([4]; 5-day oral treatment, 5-ISMN 30 mg/kg, Compound (6) 100 mg/kg): showed a reduced vascular response | EC50 at 30 mg/kg ([4]; 1 h): 20 ± 0.6 µM | EC50 at 30 mg/kg [4]: 127 ± 48 µM | effect on endothelial-dependent vasorelaxation (response to ACh) ([5]; 5-day treatment, Compound (6) 100 mg/kg): caused a reduced response to Ach | Emax at 30 mg/kg ([5]; 120 h, repeated (5-day treatment)): 78.2 ± 9.2% | Emax at 30 mg/kg ([5]; acute): 92.7 ± 4.3% | ΔΔ (mmHg), IOP change versus vehicle and versus IOP at basal [6, 11]: −1.5 ± 0.3 mmHg | ΔΔ (mmHg), IOP change versus vehicle and versus IOP at basal [6, 9]: −1.7 ± 0.4 mmHg | ΔΔ (mmHg), IOP change versus vehicle and versus IOP at basal [6, 10]: −0.6 ± 0.4 mmHg | ΔΔ (mmHg), IOP change versus vehicle and versus IOP at basal [6, 12]: −0.8 ± 0.4 mmHg | efficacy in preventing L-NAME-induced hypertension after 5-day oral treatment ([7]; compound (6) 100 mg/kg): did not maintain its efficacy | Delta vs basal (mmHg) ([7]; acute): 10.5 ± 6.1 mmHg | Delta vs basal (mmHg) ([7]; repeated (5 days oral)): 88 ± 11.5 mmHg

CC1=NN(c2ccccc2)C(=O)C1 [Edavarone]
IC50 [8]: 17 µM

COC1=C(OC)C(=O)C(CCCCCCCCCCO)=C(C)C1=O [Idebenone]
IC50 [1, 13]: 1.6 µM

CC1=C(CCCOCCCO[N+](=O)[O-])C(=O)c2ccccc2C1=O [Compound (25), 3-(3-(3-methyl-1,4-dioxo-1,4-dihydronaphthalen-2-yl)propoxy)propyl nitrate]
ΔΔ (mmHg), IOP change versus vehicle and versus basal IOP [3, 9]: −11.5 ± 2.8 mmHg | ΔΔ (mmHg), IOP change versus vehicle and versus basal IOP [3, 10]: −10.2 ± 1.3 mmHg

COC1=C(OC)C(=O)C(CCCOCCO[N+](=O)[O-])=C(C)C1=O [Compound (20), 2-(3-(4,5-dimethoxy-2-methyl-3,6-dioxocyclohexa-1,4-dienyl)propoxy)ethyl nitrate]
ΔΔ (mmHg), IOP change versus vehicle and versus basal IOP [3, 9]: −18.9 ± 2.4 mmHg | ΔΔ (mmHg), IOP change versus vehicle and versus basal IOP [3, 10]: −9.1 ± 1.6 mmHg

CC(C)(C)NC[C@H](O)COc1nsnc1N1CCOCC1 [Timolol, timolol]
ΔΔ (mmHg), IOP change versus vehicle and versus basal IOP [3, 9]: −5.7 ± 1.4 mmHg | ΔΔ (mmHg), IOP change versus vehicle and versus basal IOP [3, 10]: −8.4 ± 1.2 mmHg | ΔΔ (mmHg), IOP change versus vehicle and versus IOP at basal [6, 11]: −0.4 ± 0.4 mmHg | ΔΔ (mmHg), IOP change versus vehicle and versus IOP at basal [6, 9]: −0.7 ± 0.4 mmHg | ΔΔ (mmHg), IOP change versus vehicle and versus IOP at basal [6, 10]: −0.9 ± 0.4 mmHg | ΔΔ (mmHg), IOP change versus vehicle and versus IOP at basal [6, 12]: −0.05 ± 0.4 mmHg

CC1=C(CCCCCCO[N+](=O)[O-])C(=O)c2ccccc2C1=O [Compound (23), 6-(3-methyl-1,4-dioxo-1,4-dihydronaphthalen-2-yl) hexyl nitrate]
IC50 [1, 13]: 1.4 µM

COc1ccc2[nH]cc(CCNC(C)=O)c2c1 [Melatonin]
IC50 [8]: 476 µM

CCN[C@H]1C[C@H](C)S(=O)(=O)c2sc(S(N)(=O)=O)cc21 [Dorzolamide, dorzolamide]
ΔΔ (mmHg), IOP change versus vehicle and versus basal IOP [3, 9]: −6.9 ± 2.1 mmHg | ΔΔ (mmHg), IOP change versus vehicle and versus basal IOP [3, 10]: −6.7 ± 1.7 mmHg
